{"source": "paper PMC10686834", "about": "“Targeting myeloid chemotaxis to reverse prostate cancer therapy resistance” (Nature, 2023)", "key": {"CYP2C9": {"test_system": "CYP2C9", "set-up": "method as in AZD5069 Investigator Brochure (IB)", "conditions": "ref AZD5069 Investigator Brochure (IB); cited from earlier work"}, "plasma protein": {"test_system": "plasma protein", "set-up": "method as in AZD5069 Investigator Brochure (IB)", "conditions": "ref AZD5069 Investigator Brochure (IB); cited from earlier work"}, "[1]": {"test_system": "AR activity and AR-V7 signatures", "test": "RNA profiling (HTG EdgeSeq) of paired FFPE tumour biopsies: AR activity and AR-V7 signatures", "type": "in vivo, human", "conditions": "paired biopsies with decreased myeloid cell density (seven pairs)", "protocol": "RNA profiling of FFPE tumour biopsies collected before and after starting AZD5069 was carried out by HTG EdgeSeq (HTG Molecular Diagnostics) using the HTG human transcriptome panel containing 19,616 nuclease protection probes (NPPs), including 19,398 gene target-specific 50-nucleotide probes, 100 negative control probes, 92 probes for RNA controls established by the External RNA Control Consortium, 22 probes that measure gDNA and 4 positive control probes. The assay was carried out with a minimum of 11 mm^2 of FFPE tumour micro-dissected sections. The sections were lysed according to the manufacturer’s instructions, and added to a 96-well plate on the HTG EdgeSeq Processor (HTG Molecular Diagnostics) on which a quantitative nuclease protection assay was carried out. The addition of DNA nuclease protection probes (NPPs) was automated and they were allowed to hybridize for 16 hours to the target mRNAs. The excess non-hybridized DNA probes and non-hybridized mRNA were removed by S1 digestion leaving only NPPs hybridized to mRNA. […] After clean-up and quantification by quantitative PCR using the kit KAPA Library Quantification Kit Illumina platforms, the libraries were pooled and sequenced on the NextSeq 500 using a High Throughput 75-cycle v.2.5 kit (Illumina). […] Data were analysed using the HTG EdgeSeq Reveal analysis software. […]"}, "CYP2B6": {"test_system": "CYP2B6", "set-up": "method as in AZD5069 Investigator Brochure (IB)", "conditions": "human hepatocytes; ref AZD5069 Investigator Brochure (IB); cited from earlier work"}, "CYP1A2": {"test_system": "CYP1A2", "set-up": "method as in AZD5069 Investigator Brochure (IB)", "conditions": "at concentrations of up to 100 μmol/L; ref AZD5069 Investigator Brochure (IB); cited from earlier work"}, "CYP2C19": {"test_system": "CYP2C19", "set-up": "method as in AZD5069 Investigator Brochure (IB)", "conditions": "at concentrations of up to 100 μmol/L; ref AZD5069 Investigator Brochure (IB); cited from earlier work"}, "blood neutrophils": {"test_system": "blood neutrophils", "test": "Peripheral blood neutrophil counts and NLR on treatment", "type": "in vivo, human", "protocol": "Secondary endpoints were:(i) the rate of objective response, with objective response defined as confirmed soft tissue objective response by Response Evaluation Criteria in Solid Tumors v.1.1 in those with measurable disease, and/or PSA decline ≥50% confirmed 4 weeks or later, and/or CTC count conversion from ≥5 per 7.5 ml of blood at baseline to <5 per 7.5 ml of blood at nadir; (ii) pharmacokinetic parameters, including maximum concentration, area under the concentration–time curve; and (iii) pharmacodynamic changes including identifying patients whose blood NLR, neutrophil, and intratumour myeloid cell density decrease. Exploratory endpoints included blood cytokine levels and evaluation of tumour molecular profile on response.\nThe association between myeloid cell densities and NLR was evaluated in two cohorts (Supplementary Table 1). Cohort 1 consisted of 48 mCRPC biopsies from patients treated at ICR/RMH, Oncology Institute of Southern Switzerland and Belfast City Hospital between 2012 and 2021. All patients provided informed consent, and enrolled onto institutional protocols approved by the local RECs (REC reference: 04/Q0801/60, 11/LO/2019). The validation cohort consisted of 57 mCRPC biopsies from patients treated at ICR/RMH between 2012 and 2016 under institutional protocols approved by the local REC (REC references: 04/Q0801/60, 2017-01002 CE TI 3237). […]"}, "CYP3A4 [2]": {"test_system": "CYP3A4", "set-up": "method as in AZD5069 Investigator Brochure (IB)", "conditions": "co-administration with ketoconazole; ref AZD5069 Investigator Brochure (IB); cited from earlier work"}, "CYP3A4 [3]": {"test_system": "CYP3A4", "set-up": "method as in AZD5069 Investigator Brochure (IB)", "conditions": "at concentrations of up to 100 μmol/L; ref AZD5069 Investigator Brochure (IB); cited from earlier work"}, "[4]": {"test_system": "P-glycoprotein (P-gp; MDR1) transporter mRNA", "set-up": "method as in AZD5069 Investigator Brochure (IB)", "conditions": "human hepatocytes; ref AZD5069 Investigator Brochure (IB); cited from earlier work"}, "CYP2E1": {"test_system": "CYP2E1", "set-up": "method as in AZD5069 Investigator Brochure (IB)", "conditions": "at concentrations of up to 100 μmol/L; ref AZD5069 Investigator Brochure (IB); cited from earlier work"}, "[5]": {"set-up": "method as in AZD5069 Investigator Brochure (IB)", "conditions": "human mass balance study NCT01332903; ref AZD5069 Investigator Brochure (IB); cited from earlier work"}}}
{"smiles": "C[C@@H](Oc1cc(NS(=O)(=O)N2CCC2)nc(SCc2cccc(F)c2F)n1)[C@@H](O)CO", "note": "[AZD5069]", "values": [{"measurement": "IC50", "setting": "CYP2C9", "result": "~53.8", "unit": "µM"}, {"measurement": "bound to plasma protein", "setting": "plasma protein", "result": "> 96", "unit": "%"}, {"measurement": "AR activity and AR-V7 mRNA signatures in tumour biopsies", "setting": "[1]", "result": "downregulation of AR activity and AR-V7 signatures"}, {"measurement": "induction of CYP2B6 activity", "setting": "CYP2B6", "result": "concentration dependent induction"}, {"measurement": "inhibition of CYP1A2", "setting": "CYP1A2", "result": "not an inhibitor"}, {"measurement": "inhibition of CYP2C19", "setting": "CYP2C19", "result": "not an inhibitor"}, {"measurement": "effect on blood neutrophil counts and NLRs", "setting": "blood neutrophils; 40 mg BD to 320 mg BD", "result": "decreased blood neutrophil counts and NLRs in a dose-dependent manner"}, {"measurement": "on-target reduction in blood neutrophil counts", "setting": "blood neutrophils; AZD5069 >40 mg BD", "result": "at least 30%"}, {"measurement": "increased exposure (AUC)", "setting": "CYP3A4 [2]", "result": 2.1, "unit": "fold"}, {"measurement": "increased exposure (Cmax)", "setting": "CYP3A4 [2]", "result": 1.6, "unit": "fold"}, {"measurement": "inhibition of CYP3A4", "setting": "CYP3A4 [3]", "result": "not an inhibitor"}, {"measurement": "induction of P-glycoprotein (P-gp; MDR1) transporter mRNA", "setting": "[4]", "result": "concentration dependent induction"}, {"measurement": "inhibition of CYP2E1", "setting": "CYP2E1", "result": "not an inhibitor"}, {"measurement": "phase II glucose conjugate metabolite in urine", "setting": "[5]", "result": "< 5.3 % of dose"}]}
